Measured values from patent publication US12643879B2, “Functionalized heterocyclic compounds as modulators of stimulator of interferon genes (STING)” (RYVU THERAPEUTICS S.A., priority 2019, dated 2026).
Where a name gives a salt, the structure may show the parent alone. Read-outs that look alike come from different tables or passages of the source.

Columns and labels:
[1] = system: NF-κB pathway in THP-1 dual cells; assay: THP-1 Dual reporter assay, NF-κB pathway (SEAP); assay type: cell-based; settings: Homo sapiens, THP1-Dual, read-out: THP1 Dual EC50 (μM) NFkB
Outline: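 After 18 h stimulation with STING agonist, culture medium was sampled. IRF activity was read as luminescence of ISG54/ISRE-driven luciferase right after adding reagent; NF-κB activity as absorbance at 630 or 655 nm of SEAP (IFN-β minimal promoter with NF-κB elements) after 1 or 2 h at 37° C.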

[2] = system: interferon regulatory factor (IRF) pathway in THP-1 dual cells; assay: THP-1 Dual reporter assay, IRF pathway (luciferase); assay type: cell-based; settings: Homo sapiens, THP1-Dual, read-out: THP1 Dual EC50 (μM) IRF
Outline: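 Compounds (STING agonists) stimulated THP-1 dual cells for 18 h; the cells carry an ISG54 promoter/ISRE-driven luciferase (IRF) and an IFN-β minimal promoter/NF-κB element-driven SEAP. Luciferase in conditioned medium was read by luminescence immediately; SEAP by absorbance at 630 or 655 nm after 1 or 2 h at 37° C.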

[3] = 18 h stimulation, absorbance at 630 or 655 nm

Row | SMILES | EC50 [1, 3] | EC50 ([2]; 18 h stimulation, luminescence) | EC50 ([1]; 18 h) | EC50 ([2]; 18 h)
1 | Cc1cc(CN(Cc2cn(C(C)C)c3cc(N4CC[C@@H](O)C4)ccc3c2=O)[C@H]2CCCN(c3cncnc3)C2)ccn1 [Example 59, 7-[(3R)-3-Hydroxypyrrolidin-1-yl]-3-({[(2-methylpyridin-4-yl)methyl][(3S)-1-(pyrimidin-5-yl)piperidin-3-yl]amino}methyl)-1-(propan-2-yl)-1,4-dihydroquinolin-4-one] | > 10 µM | > 10 µM |  | 
2 | Cc1ccc(N2CCC[C@H](N(Cc3ccnc(C)c3)Cc3cn(C4CC4)c4cc(N5CC[C@@H](N(C)C(=O)CCOCCOCCOCCN)C5)c(F)cc4c3=O)C2)cn1 [Example 55D, 3-{2-[2-(2-aminoethoxy)ethoxy]ethoxy}-N-[(3R)-1-[1-cyclopropyl-6-fluoro-3-({[(3S)-1-(6-methylpyridin-3-yl)piperidin-3-yl][(2-methylpyridin-4-yl)methyl]amino}methyl)-4-oxo-1,4-dihydroquinolin-7-yl]pyrrolidin-3-yl]-N-methylpropanamide formate] | 1 to 10 µM | 1 to 10 µM |  | 
3 | Cc1cc(CN(Cc2cn(C(C)C)c3cc(N4CC[C@@H](O)C4)ccc3c2=O)[C@H]2CCCN(c3cn[nH]c3)C2)ccn1 [Example 69, 7-[(3R)-3-hydroxypyrrolidin-1-yl]-3-({[(2-methylpyridin-4-yl)methyl][(3S)-1-(1H-pyrazol-4-yl)piperidin-3-yl]amino}methyl)-1-(propan-2-yl)-1,4-dihydroquinolin-4-one] | 1 to 10 µM | 1 to 10 µM |  | 
4 | Cc1ccc(N2CCC[C@H](N(Cc3ccnc(C)c3)Cc3cn(C(C)C)c4cc(N5C[C@@H](O)[C@@H](O)C5)ccc4c3=O)C2)cn1 [Example 54, 7-[(3R,4S)-3,4-dihydroxypyrrolidin-1-yl]-3-({[(3S)-1-(6-methylpyridin-3-yl)piperidin-3-yl][(2-methylpyridin-4-yl)methyl]amino}methyl)-1-(propan-2-yl)-1,4-dihydroquinolin-4-one] | 1 to 10 µM | < 1 µM |  | 
5 | Cc1cc(CN(Cc2cn(C)c3ccccc3c2=O)[C@H]2CCCN(c3ccc(OCCO)nc3)C2)ccn1 [Example 101, 3-({[(3S)-1-[6-(2-hydroxyethoxy)pyridin-3-yl]piperidin-3-yl][(2-methylpyridin-4-yl)methyl]amino}methyl)-1-methyl-1,4-dihydroquinolin-4-one] | 1 to 10 µM | 1 to 10 µM |  | 
6 | Cc1ccc(N2CCC[C@H](N(Cc3ccnc(C)c3)Cc3cn(C4CC4)c4cc(N5CCC(N(C)C(=O)OCc6ccc(NC(=O)[C@H](CCCNC(N)=O)NC(=O)[C@@H](NC(=O)CCOCCOCCOCCN=[N+]=[N-])C(C)C)cc6)CC5)c(F)cc4c3=O)C2)cn1 [Example 19A] | 1 to 10 µM | 1 to 10 µM |  | 
7 | Cc1ccc(N2CCC[C@H](N(Cc3ccnc(C)c3)Cc3cn(C4CC4)c4cc(OCCN(C)C(=O)CCOCCOCCOCCOCCOCCOCCOCCN)c(F)cc4c3=O)C2)cn1 [Example 11D, 1-amino-N-(2-{[1-cyclopropyl-6-fluoro-3-({[(3S)-1-(6-methylpyridin-3-yl)piperidin-3-yl][(2-methylpyridin-4-yl)methyl]amino}methyl)-4-oxo-1,4-dihydroquinolin-7-yl]oxy}ethyl)-N-methyl-3,6,9,12,15,18,21-heptaoxatetracosan-24-amide] | 1 to 10 µM | 1 to 10 µM |  | 
8 | Cc1ccc(N2CCC[C@H](N(Cc3ccnc(C)c3)Cc3cn(C(C)C)c4nc(N5CC[C@@H](O)C5)c(F)cc4c3=O)C2)cn1 [Example 42, 6-fluoro-7-[(3R)-3-hydroxypyrrolidin-1-yl]-3-({[(3S)-1-(6-methylpyridin-3-yl)piperidin-3-yl][(2-methylpyridin-4-yl)methyl]amino}methyl)-1-(propan-2-yl)-1,4-dihydro-1,8-naphthyridin-4-one] |  |  | < 1 µM | < 1 µM
9 | Cc1ccc(N2CCC[C@H](N(Cc3ccnc(C)c3)Cc3cn(C4CC4)c4cc(OCCN(C)C(=O)COCCOCCN)c(F)cc4c3=O)C2)cn1 [Example 11A, 2-[2-(2-aminoethoxy)ethoxy]-N-(2-{[1-cyclopropyl-6-fluoro-3-({[(3S)-1-(6-methylpyridin-3-yl)piperidin-3-yl][(2-methylpyridin-4-yl)methyl]amino}methyl)-4-oxo-1,4-dihydroquinolin-7-yl]oxy}ethyl)-N-methylacetamide] | 1 to 10 µM | 1 to 10 µM |  | 
10 | Cc1cc(CN(Cc2cn(C3CC3)c3cc(OCCO)c(F)cc3c2=O)[C@H]2CCCN(c3cccnc3)C2)ccn1 [Example 84, 1-cyclopropyl-6-fluoro-7-(2-hydroxyethoxy)-3-({[(2-methylpyridin-4-yl)methyl][(3S)-1-(pyridin-3-yl)piperidin-3-yl]amino}methyl)-1,4-dihydroquinolin-4-one hydrochloride] |  |  | < 1 µM | < 1 µM

Now from value to compound, other results behind:

Row | EC50 [1, 3] | EC50 ([2]; 18 h stimulation, luminescence) | SMILES | EC50 ([1]; 18 h) | EC50 ([2]; 18 h)
11 | < 1 µM | < 1 µM | Cc1cc(CN(Cc2cn(C3CC3)c3cc(OCCO)c(F)cc3c2=O)[C@H]2CCCN(c3ccc(C4CC4)nc3)C2)ccn1 [Example 100, 1-cyclopropyl-3-({[(3S)-1-(6-cyclopropylpyridin-3-yl)piperidin-3-yl][(2-methylpyridin-4-yl)methyl]amino}methyl)-6-fluoro-7-(2-hydroxyethoxy)-1,4-dihydroquinolin-4-one] |  | 
12 | < 1 µM | < 1 µM | C#CCOCCOCCOCCOCCOCCC(=O)Nc1ccc(COC(=O)N(C)CCOc2cc3c(cc2F)c(=O)c(CN(Cc2ccnc(C)c2)[C@H]2CCCN(c4ccc(C)nc4)C2)cn3C2CC2)cc1 [Example 11F, [4-(4,7,10,13,16-pentaoxanonadec-18-ynamido)phenyl]methyl N-(2-{[1-cyclopropyl-6-fluoro-3-({[(3S)-1-(6-methylpyridin-3-yl)piperidin-3-yl][(2-methylpyridin-4-yl)methyl]amino}methyl)-4-oxo-1,4-dihydroquinolin-7-yl]oxy}ethyl)-N-methylcarbamate] |  | 
13 | 1 to 10 µM | 1 to 10 µM | Cc1cc(CN(Cc2cn(C3CC3)c3cc(Cl)c(F)cc3c2=O)[C@H]2CCCN(c3ccc(C(=O)O)nc3)C2)ccn1 [Example 102] |  | 
14 | < 1 µM | < 1 µM | Cc1ccc(N2CCC[C@H](N(Cc3ccnc(C)c3)Cc3cn(C4CC4)c4cc(-c5cnn(CCO)c5)c(F)cc4c3=O)C2)cn1 [Example 62, 1-Cyclopropyl-6-fluoro-7-[1-(2-hydroxyethyl)-1H-pyrazol 4-yl]-3-({[(3S)-1-(6-methylpyridin-3-yl)piperidin-3-yl][(2-methylpyridin-4-yl)methyl]amino}methyl)-1,4-dihydroquinolin-4-one] |  | 
15 | < 1 µM | < 1 µM | COc1cc(CN(Cc2cn(C3CC3)c3cc(F)c(F)cc3c2=O)[C@H]2CCCN(c3ccc(NC(C)=O)nc3)C2)ccn1 [Example 99, N-{5-[(3S)-3-{[(1-cyclopropyl-6,7-difluoro-4-oxo-1,4-dihydroquinolin-3-yl)methyl][(2-methoxypyridin-4-yl)methyl]amino}piperidin-1-yl]pyridin-2-yl}acetamide] |  | 
16 | < 1 µM | < 1 µM | Cc1cc(CN(Cc2cn(C3CC3)c3cc(N4CC[C@H](CO)C4)c(F)cc3c2=O)[C@H]2CCCN(c3cccnc3)C2)ccn1 [Example 87, 1-cyclopropyl-6-fluoro-7-[(3S)-3-(hydroxymethyl)pyrrolidin-1-yl]-3-({[(2-methylpyridin-4-yl)methyl][(3S)-1-(pyridin-3-yl)piperidin-3-yl]amino}methyl)-1,4-dihydroquinolin-4-one hydrochloride] |  | 
17 | < 1 µM | < 1 µM | Cc1ccc(N2CCC[C@H](N(Cc3ccnc(C)c3)Cc3cn(C(C)C)c4cc(N5CCN(CCO)CC5)ccc4c3=O)C2)cn1 [Example 53, 7-[4-(2-Hydroxyethyl)piperazin-1-yl]-3-({[(3S)-1-(6-methylpyridin-3-yl)piperidin-3-yl][(2-methylpyridin-4-yl)methyl]amino}methyl)-1-(propan-2-yl)-1,4-dihydroquinolin-4-one] |  | 
18 | < 1 µM | < 1 µM | Cc1ccc(N2CCC[C@H](N(Cc3ccnc(C)c3)Cc3cn(C4CC4)c4cc(-n5cnc(C(N)=O)c5)c(F)cc4c3=O)C2)cn1 [Example 64, 1-[1-Cyclopropyl-6-fluoro-3-({[(3S)-1-(6-methylpyridin-3-yl)piperidin-3-yl][(2-methylpyridin-4-yl)methyl]amino}methyl)-4-oxo-1,4-dihydroquinolin-7-yl]-1H-imidazole-4-carboxamide] |  | 
19 | < 1 µM | < 1 µM | Cc1ccc(N2CCC[C@H](N(Cc3ccnc(C)c3)Cc3cn(C4CC4)c4cc(N5CC[C@H](N)C(F)(F)C5)c(F)cc4c3=O)C2)cn1.Cl (single isomer, unassigned) [Example 57, 7-[(4S)-4-amino-3,3-difluoropiperidin-1-yl]-1-cyclopropyl-6-fluoro-3-({[(3S)-1-(6-methylpyridin-3-yl)piperidin-3-yl][(2-methylpyridin-4-yl)methyl]amino}methyl)-1,4-dihydroquinolin-4-one] |  | 
20 | < 1 µM | < 1 µM | Cc1cc(CN(Cc2cn(C3CC3)c3cc(OCCO)c(F)cc3c2=O)[C@H]2C[C@H](F)CN(c3cccnc3)C2)ccn1 [Example 89, 1-cyclopropyl-6-fluoro-3-({[(3S,5S)-5-fluoro-1-(pyridin-3-yl)piperidin-3-yl][(2-methylpyridin-4-yl)methyl]amino}methyl)-7-(2-hydroxyethoxy)-1,4-dihydroquinolin-4-one hydrochloride] |  | 
21 | < 1 µM | < 1 µM | Cc1cc(CN(Cc2cn(C3CC3)c3cc(Cl)c(F)cc3c2=O)[C@H]2CCCN(c3ccc(C(N)=O)nc3)C2)ccn1 [Example 103, 5-[(3S)-3-{[(7-Chloro-1-cyclopropyl-6-fluoro-4-oxo-1,4-dihydroquinolin-3-yl)methyl][(2-methylpyridin-4-yl)methyl]amino}piperidin-1-yl]pyridine-2-carboxamide] |  | 
